Laboratory results reported in US20250144077A1, “DOSAGE REGIMEN FOR THROMBOPOIETIN RECEPTOR AGONIST” (JIANGSU HENGRUI PHARMACEUTICALS CO., LTD., priority 2022, published 2025).
Where two headings read alike, the source gives them in different places.

Assays:
[1] = Single-dose, open-label pharmacokinetics of herombopag in subjects with normal liver function, mild and moderate hepatic impairments; assay type: in vivo, human; conditions: for AUC0-t GLSM Ratio / AUC0-∞ GLSM Ratio / Cmax GLSM Ratio: ANOVA
Protocol: Example 1: Study of Pharmacokinetics and Safety of Trial Drug in Subjects with Mild Hepatic Impairments (Child-Pugh: Grade A), Moderate Hepatic Impairments (Child-Pugh: Grade B), and Normal Liver Function
Trial drug: tablets of herombopag diethanolamine salt, produced and provided by Jiangsu Hengrui, strengths: 2.5 mg/tablet and 5 mg/tablet.
This study is a single-dose, open-label trial designed to evaluate the pharmacokinetics of herombopag in subjects with normal liver function, mild hepatic impairments, and moderate hepatic impairments.
The severity of the hepatic functional impairments in the subjects was assessed using the Child-Pugh score (mild: grade A, a score of 5 or 6; moderate: grade B, a score of 7-9).
(§1) All the subjects in each group underwent PK, PD, and safety index collection following the administration of the study drug on D1 according to the trial process chart, and comparative analysis was then performed between groups.
PK blood sampling time points: Venous blood samples of about 4 mL were collected from each subject within the 1 h prior to administration and at 0.5, 1, 2, 4, 6, 7, 8, 10, 12, 24, 48, 72, 96, and 120 h after administration. Blood sampling time windows: within the 60 min prior to administration; ±2 min for the 0.5 h-2 h after administration; ±5 min for the 4 h-12 h; ±15 min for the 24 h-120 h after administration.
(§2) Prior to the day-1 administration (D-1), the subjects were required to fast for 10 h or more, though water intake was not prohibited. The following morning (D1), the subjects orally took, on an empty stomach, a 7.5 mg dose of herombopag diethanolamine tablets (comprised of one 2.5 mg tablet and one 5 mg tablet) with about 240 mL of warm water. Water intake was prohibited 1 h before and after the administration. The subjects had lunch about 4 h after the administration and had dinner about 10 h after the administration. The subjects were advised to remain seated within the 2 h after the administration and to avoid strenuous exercise and prolonged bed rest.
Pharmacokinetic parameters of herombopag, including Tmax, Cmax, AUC0-t, AUC0-∞, t1/2, V/F, and CL/F, were calculated according to the actual sampling time points using a non-compartmental model (NCA) on Phoenix WinNonlin 8.1.

plasma protein = experiment: Plasma protein binding rate of herombopag in subjects with hepatic impairments; assay type: in vitro ADME, human
platelet counts = experiment: PD: platelet counts after administration compared to baseline; assay type: in vivo, human; conditions: all the groups; single 7.5 mg oral dose
Protocol: as §1

[2] = Safety and adverse events after single 7.5 mg oral dose (CTCAE5.0 grading); assay type: in vivo, human
Protocol: as §1, §2
In this study, a total of 24 subjects were included, and all of them were included in a safety analysis set.
In this study, all drug-related AEs were graded according to CTCAE5.0. […] The adverse reactions mainly occurred in the hepatic impairment groups, and the incidence of adverse reactions in the moderate hepatic impairment group was relatively high, which may be attributed to the fact that these subjects had pre-existing liver diseases of varying degrees of severity and most of them already had abnormal baseline laboratory test results. These subjects recovered from all the adverse events without intervention.

[3] = Moderate vs. Normal (moderate/normal)
[4] = mild hepatic impairments compared with normal liver function
[5] = moderate hepatic impairments compared with normal liver function
[6] = single 7.5 mg oral dose, fasted, mild hepatic impairment (n = 8), GeoMean (% CVb)
[7] = single 7.5 mg oral dose, fasted, moderate hepatic impairment (n = 8), GeoMean (% CVb)
[8] = single 7.5 mg oral dose, fasted, normal liver function group (n = 8), GeoMean (% CVb)
[9] = moderate hepatic impairment group, 5 subjects

AUC0-t GLSM Ratio ([1]; Mild vs. Normal (mild/normal)): 121.73%
AUC0-∞ GLSM Ratio ([1]; Mild vs. Normal (mild/normal)): 120.16%
Cmax GLSM Ratio ([1]; Mild vs. Normal (mild/normal)): 170.39%
AUC0-t GLSM Ratio [1, 3]: 171.21%
AUC0-∞ GLSM Ratio [1, 3]: 173.06%
Cmax GLSM Ratio [1, 3]: 204.72%
median time to peak, hepatic impairment groups versus normal liver function group ([1]; human, in vivo): smaller median time to peak
AUC(0-t) ([1]; human, plasma, oral, 7.5 mg, geometric least squares mean, mild hepatic impairment group, n 8, read-out: AUC0-t GLSM): 1060 ng·h/mL
AUC(0-inf) ([1]; human, plasma, oral, 7.5 mg, geometric least squares mean, mild hepatic impairment group, n 8, read-out: AUC0-∞ GLSM): 1120 ng·h/mL
Cmax ([1]; human, plasma, oral, 7.5 mg, geometric least squares mean, mild hepatic impairment group, n 8, read-out: Cmax GLSM): 62.6 ng/mL
AUC(0-t) ([1]; human, plasma, oral, 7.5 mg, geometric least squares mean, moderate hepatic impairment group, n 8, read-out: AUC0-t GLSM): 1500 ng·h/mL
AUC(0-inf) ([1]; human, plasma, oral, 7.5 mg, geometric least squares mean, moderate hepatic impairment group, n 8, read-out: AUC0-∞ GLSM): 1610 ng·h/mL
Cmax ([1]; human, plasma, oral, 7.5 mg, geometric least squares mean, moderate hepatic impairment group, n 8, read-out: Cmax GLSM): 75.3 ng/mL
AUC(0-t) ([1]; human, plasma, oral, 7.5 mg, geometric least squares mean, normal liver function group, n 8, read-out: AUC0-t GLSM): 874 ng·h/mL
AUC(0-inf) ([1]; human, plasma, oral, 7.5 mg, geometric least squares mean, normal liver function group, n 8, read-out: AUC0-∞ GLSM): 929 ng·h/mL
Cmax ([1]; human, plasma, oral, 7.5 mg, geometric least squares mean, normal liver function group, n 8, read-out: Cmax GLSM): 36.8 ng/mL
half-life ([1]; human, plasma, po, 7.5 mg, single 7.5 mg oral dose, empty stomach, mild hepatic impairments (Child-Pugh: grade A), read-out: arithmetic mean of t1/2 (converted)): 32.3 h
AUC(0-t) ([1]; human, plasma, po, 7.5 mg, single 7.5 mg oral dose, empty stomach, mild hepatic impairments (Child-Pugh: grade A), read-out: geometric mean of AUC0-t): 1060 ng·h/mL
AUC(0-inf) ([1]; human, plasma, po, 7.5 mg, single 7.5 mg oral dose, empty stomach, mild hepatic impairments (Child-Pugh: grade A), read-out: geometric mean of AUC0-∞): 1120 ng·h/mL
Tmax ([1]; human, plasma, po, 7.5 mg, single 7.5 mg oral dose, empty stomach, mild hepatic impairments (Child-Pugh: grade A), read-out: median of Tmax): 2 h
half-life ([1]; human, plasma, po, 7.5 mg, single 7.5 mg oral dose, empty stomach, moderate hepatic impairments (Child-Pugh: grade B), read-out: arithmetic mean of t1/2 (converted)): 36.3 h
AUC(0-t) ([1]; human, plasma, po, 7.5 mg, single 7.5 mg oral dose, empty stomach, moderate hepatic impairments (Child-Pugh: grade B), read-out: geometric mean of AUC0-t): 1580 ng·h/mL
AUC(0-inf) ([1]; human, plasma, po, 7.5 mg, single 7.5 mg oral dose, empty stomach, moderate hepatic impairments (Child-Pugh: grade B), read-out: geometric mean of AUC0-∞): 1660 ng·h/mL
Tmax ([1]; human, plasma, po, 7.5 mg, single 7.5 mg oral dose, empty stomach, moderate hepatic impairments (Child-Pugh: grade B), read-out: median of Tmax): 2 h
half-life ([1]; human, plasma, po, 7.5 mg, single 7.5 mg oral dose, empty stomach, normal liver function, read-out: arithmetic mean of t1/2 (converted)): 34.6 h
AUC(0-t) ([1]; human, plasma, po, 7.5 mg, single 7.5 mg oral dose, empty stomach, normal liver function, read-out: geometric mean of AUC0-t): 874 ng·h/mL
AUC(0-inf) ([1]; human, plasma, po, 7.5 mg, single 7.5 mg oral dose, empty stomach, normal liver function, read-out: geometric mean of AUC0-∞): 929 ng·h/mL
Tmax ([1]; human, plasma, po, 7.5 mg, single 7.5 mg oral dose, empty stomach, normal liver function, read-out: median of Tmax): 8 h
AUC(0-t) ([1]; human, plasma, po, 7.5 mg, single 7.5 mg oral dose, fasted, mild hepatic impairment (n = 8), GeoMean (% CVb), read-out: AUC0-t): 1060 ng·h/mL
AUC(0-inf) ([1]; human, plasma, po, 7.5 mg, single 7.5 mg oral dose, fasted, mild hepatic impairment (n = 8), GeoMean (% CVb), read-out: AUC0-∞): 1120 ng·h/mL
Cmax ([1]; human, plasma, po, 7.5 mg, single 7.5 mg oral dose, fasted, mild hepatic impairment (n = 8), GeoMean (% CVb), read-out: Cmax): 62.4 ng/mL
half-life ([1]; human, plasma, po, 7.5 mg, single 7.5 mg oral dose, fasted, mild hepatic impairment (n = 8), Mean ± SD, read-out: t1/2 (converted)): 32.2 ± 7.28 h
Tmax ([1]; human, plasma, po, 7.5 mg, single 7.5 mg oral dose, fasted, mild hepatic impairment (n = 8), Median (Min-Max), read-out: Tmax): 2 h
AUC(0-t) ([1]; human, plasma, po, 7.5 mg, single 7.5 mg oral dose, fasted, moderate hepatic impairment (n = 8), GeoMean (% CVb), read-out: AUC0-t): 1580 ng·h/mL
AUC(0-inf) ([1]; human, plasma, po, 7.5 mg, single 7.5 mg oral dose, fasted, moderate hepatic impairment (n = 8), GeoMean (% CVb), read-out: AUC0-∞): 1660 ng·h/mL
Cmax ([1]; human, plasma, po, 7.5 mg, single 7.5 mg oral dose, fasted, moderate hepatic impairment (n = 8), GeoMean (% CVb), read-out: Cmax): 82.8 ng/mL
half-life ([1]; human, plasma, po, 7.5 mg, single 7.5 mg oral dose, fasted, moderate hepatic impairment (n = 8), Mean ± SD, read-out: t1/2 (converted)): 36.3 ± 11.9 h
Tmax ([1]; human, plasma, po, 7.5 mg, single 7.5 mg oral dose, fasted, moderate hepatic impairment (n = 8), Median (Min-Max), read-out: Tmax): 2 h
AUC(0-t) ([1]; human, plasma, po, 7.5 mg, single 7.5 mg oral dose, fasted, normal liver function group (n = 8), GeoMean (% CVb), read-out: AUC0-t): 874 ng·h/mL
AUC(0-inf) ([1]; human, plasma, po, 7.5 mg, single 7.5 mg oral dose, fasted, normal liver function group (n = 8), GeoMean (% CVb), read-out: AUC0-∞): 929 ng·h/mL
Cmax ([1]; human, plasma, po, 7.5 mg, single 7.5 mg oral dose, fasted, normal liver function group (n = 8), GeoMean (% CVb), read-out: Cmax): 36.8 ng/mL
half-life ([1]; human, plasma, po, 7.5 mg, single 7.5 mg oral dose, fasted, normal liver function group (n = 8), Mean ± SD, read-out: t1/2 (converted)): 34.6 ± 11.9 h
Tmax ([1]; human, plasma, po, 7.5 mg, single 7.5 mg oral dose, fasted, normal liver function group (n = 8), Median (Min-Max), read-out: Tmax): 8 h
AUC0-t increase [1, 4]: 21.73%
AUC0-∞ increase [1, 4]: 20.16%
Cmax increase [1, 4]: 70.39%
AUC0-t increase [1, 5]: 71.21%
AUC0-∞ increase [1, 5]: 73.06%
Cmax increase [1, 5]: 104.72%
half-lives compared between groups ([1]; normal, mild and moderate hepatic impairment groups): substantially identical half-lives
CL/F [1, 6]: 6.72(41.5) L/h
Cmax [1, 6]: 62.6(42.2) ng/mL
V/F [1, 6]: 304(45.6) L
CL/F [1, 7]: 4.66(58.8) L/h
V/F [1, 7]: 233(69.7) L
CL/F [1, 8]: 8.07(101.6) L/h
V/F [1, 8]: 372(60.3) L
effect of hepatic impairments on plasma protein binding rate (plasma protein): did not significantly affect
SMILES: CC1=NN(c2ccc3c(c2)CCCC3)C(=O)/C1=N\Nc1cccc(-c2ccc(C(=O)O)o2)c1O [herombopag, (Z)-5-(2-hydroxy-3-(2-(3-methyl-5-oxo-1-(5,6,7,8-tetrahydronaphthalen-2-yl)-1H-pyrazol-4(5H)-ylidene)hydrazino)phenyl)furan-2-carboxylic acid]
platelet counts after administration compared to the baseline (platelet counts): trend towards higher platelet counts compared to the baseline
incidence of AEs related to the study drug ([2]; all 24 subjects, 13 subjects, 25 events): 54.2%
incidence of adverse events ([2]; all 24 subjects, 15 subjects, 29 events): 62.5%
subjects with grade 1 drug-related AEs (CTCAE5.0) ([2]; all subjects, nine subjects): 37.5%
subjects with grade 2 drug-related AEs (CTCAE5.0) ([2]; all subjects, seven subjects): 29.2%
subjects with grade 2 drug-related AEs (CTCAE5.0) ([2]; mild hepatic impairment group, 1 subject, decreased neutrophil count): 12.5%
subjects with grade 1 drug-related AEs (CTCAE5.0) ([2]; mild hepatic impairment group, 3 subjects): 37.5%
incidence of AEs related to the study drug ([2]; mild hepatic impairment group, 4 subjects, 5 events): 50.0%
subjects with grade 3 drug-related AEs (CTCAE5.0) ([2]; moderate hepatic impairment group, 1 subject): 12.5%
subjects with grade 1 drug-related AEs (CTCAE5.0) [2, 9]: 62.5%
subjects with grade 2 drug-related AEs (CTCAE5.0) [2, 9]: 62.5%
incidence of AEs related to the study drug ([2]; moderate hepatic impairment group, 7 subjects, 18 events): 87.5%
subjects with grade 1 drug-related AEs (CTCAE5.0) ([2]; normal liver function group, 1 subject): 25.0%
subjects with grade 2 drug-related AEs (CTCAE5.0) ([2]; normal liver function group, 1 subject, hypertriglyceridemia): 12.5%
incidence of AEs related to the study drug ([2]; normal liver function group, 2 subjects, 2 events): 25.0%
safety and tolerability ([2]; single oral dose, normal liver function, mild and moderate hepatic impairments): safe and well tolerated
